Patent EP4733388A1, “LACTOBACILLUS RHAMNOSUS STRAIN, VIABLE BACTERIA FORMULATION AND PREPARATION METHOD THEREFOR AND USE THEREOF” (priority 2023, dated 2024)

Tests used:
[1] = tested on: L. rhamnosus HOM1213 strain; assay: Antibiotic susceptibility test, K-B agar method (disc diffusion); for Susceptibility (class by Diameter of Inhibition Zone), HOM1213 Group: key: S (susceptible) represents sensitivity; I (intermediate) represents moderate sensitivity; R (resistance) represents drug resistance; type: cell-based, Lactobacillus rhamnosus; conditions: for Susceptibility (class by Diameter of Inhibition Zone), HOM1213 Group: standard antibiotic disc, 37°C, 48 h, CLSI criteria, breakpoints in mm per antibiotic in c1-c3; for Susceptibility of L. rhamnosus HOM1213 strain to the antibiotic, in words: summary of Table 3
Description: (§1) The drug susceptibility test was performed using the K-B agar method recommended by the National Committee for Clinical Laboratory Standards (NCCLS), the drug sensitivity test, as follows: • (1) The commercial strain L. rhamnosus GG strain was selected as the control strain. The L. rhamnosus HOM1213 strain and the GG strain were inoculated in MRS liquid medium at an inoculation amount of 3% of the total amount of the medium, cultured at 37°C for 24 hours, and activated continuously for 3 generations for later use. • (2) 1 mL of bacterial solution (1.5 × 10^8 CFU/mL) and 15 mL of MRS solid medium were mixed, and placed in a sterile culture dish, and mixed uniformly. A standard antibiotic susceptibility testing disc was placed after the plate was solidified, and cultured at 37°C for 48 h, and the diameter of the inhibition zone was measured and recorded.
(§2) Table 3. Results of susceptibility test of L. rhamnosus HOM1213 strain on nine antibiotics.

[2] = tested on: L. rhamnosus GG strain; assay: as above; type: cell-based, Lactobacillus rhamnosus; conditions: standard antibiotic disc, 37°C, 48 h; CLSI criteria, breakpoints in mm per antibiotic in c1-c3; note: key: S (susceptible) represents sensitivity; I (intermediate) represents moderate sensitivity; R (resistance) represents drug resistance
Description: as §1, §2

[3] = tested on: superoxide dismutase (SOD); assay: In vitro antioxidant capacity test: superoxide dismutase (SOD); conditions: strain suspension 2 × 10^10 CFU/ml; vitamin C 0.05%; mean ± SD
Description: (§3) The L. rhamnosus HOM1213 isolated in Example 1 and GG strains were inoculated in an MRS liquid medium at an inoculation amount of 3% of the total amount of the medium, fermented and cultured at 37°C for 24 h, activated continuously for 3 generations. It was centrifuged at 11000 rpm for 10 min, and the bacterial cells were washed with PBS buffer, resuspended and centrifuged, repeated three times. The count of bacteria was adjusted to 2 × 10^10 CFU/ml for later use. Indicators included total antioxidant capacity (T-AOC), superoxide dismutase (SOD), glutathione peroxidase (GSH-Px), glutathione (GSH), hydroxyl radical scavenging test (·OH), and DPPH radical scavenging test. The DPPH free radical scavenging test used a colorimetric method, and its principle was that the free radical scavenger donated an electron to pair with the lone pair electron of the DPPH free radicals, so that its own color changed from purple to yellow. Its absorbance at the wavelength of 517 nm decreased, and the degree of change has a linear relation to the degree of free radical scavenging, that is, the stronger the scavenging ability of the free radical scavenger, the lower the absorbance. Other indicators were determined by using a kit purchased from Nanjing Jiancheng Company, according to operation instructions. […]

[4] = tested on: glutathione (GSH); assay: In vitro antioxidant capacity test: glutathione (GSH); conditions: strain suspension 2 × 10^10 CFU/ml; vitamin C 0.05%; mean ± SD
Description: as §3

[5] = In vitro antioxidant capacity test: total antioxidant capacity (T-AOC); conditions: strain suspension 2 × 10^10 CFU/ml; vitamin C 0.05%; mean ± SD
Description: as §3

[6] = Hydroxyl radical scavenging test (·OH); conditions: strain suspension 2 × 10^10 CFU/ml; vitamin C 0.05%; mean ± SD
Description: as §3

[7] = DPPH radical scavenging test (colorimetric, 517 nm); conditions: strain suspension 2 × 10^10 CFU/ml; vitamin C 0.05%; mean ± SD
Description: as §3

Molecule | Susceptibility (class by Diameter of Inhibition Zone), HOM1213 Group [1] | Susceptibility of L. rhamnosus HOM1213 strain to the antibiotic, in words [1] | Susceptibility (class by Diameter of Inhibition Zone), GG Group [2] | other results
CC1(C)S[C@@H]2[C@H](NC(=O)[C@H](N)c3ccccc3)C(=O)N2[C@H]1C(=O)O [Ampicillin] | R | resistant | R | –
O=C(N[C@H](CO)[C@H](O)c1ccc([N+](=O)[O-])cc1)C(Cl)Cl [Chloramphenicol] | S | – | S | –
CCC[C@@H]1C[C@@H](C(=O)N[C@@H]([C@H]2O[C@H](SC)[C@H](O)[C@@H](O)[C@H]2O)[C@H](C)Cl)N(C)C1 [Clindamycin] | S | – | S | –
CC[C@H]1OC(=O)[C@H](C)[C@@H](O[C@H]2C[C@@](C)(OC)[C@@H](O)[C@H](C)O2)[C@H](C)[C@@H](O[C@@H]2O[C@H](C)C[C@H](N(C)C)[C@H]2O)[C@](C)(O)C[C@@H](C)C(=O)[C@H](C)[C@@H](O)[C@]1(C)O [Erythromycin] | S | – | S | –
NC[C@H]1O[C@H](O[C@H]2[C@H](O)[C@@H](O[C@H]3O[C@H](CO)[C@@H](O)[C@H](N)[C@H]3O)[C@H](N)C[C@@H]2N)[C@H](O)[C@@H](O)[C@@H]1O [Kanamycin] | R | – | R | –
[H]/N=C(/N)N[C@H]1[C@H](O)[C@@H](O)[C@H](O[C@@H]2O[C@@H](C)[C@](O)(C=O)[C@H]2O[C@@H]2O[C@@H](CO)[C@H](O)[C@@H](O)[C@@H]2NC)[C@@H](N/C(N)=N\[H])[C@@H]1O [Streptomycin] | I | moderately resistant | I | –
CN(C)[C@@H]1C(O)=C(C(N)=O)C(=O)[C@@]2(O)C(O)=C3C(=O)c4c(O)cccc4[C@@](C)(O)[C@H]3C[C@@H]12 [Tetracycline] | S | – | S | –
CN[C@H](CC(C)C)C(=O)N[C@H]1C(=O)N[C@@H](CC(N)=O)C(=O)N[C@H]2C(=O)N[C@H]3C(=O)N[C@H](C(=O)N[C@H](C(=O)O)c4cc(O)cc(O)c4-c4cc3ccc4O)[C@H](O)c3ccc(c(Cl)c3)Oc3cc2cc(c3O[C@@H]2O[C@H](CO)[C@@H](O)[C@H](O)[C@H]2O[C@H]2C[C@](C)(N)[C@H](O)[C@H](C)O2)Oc2ccc(cc2Cl)[C@H]1O [Vancomycin] | R | resistant | R | –
O=C1O[C@H]([C@@H](O)CO)C(O)=C1O [Vitamin C] | – | – | – | SOD [3]: 18.07±1.08 U/mL; GSH [4]: 0.33±0.06 mgGSH/L; T-AOC [5]: 16.90±1.42 U/mL; ·OH Scavenging Rate (%) [6]: 36.70±1.33%; DPPH Scavenging Rate (%) [7]: 96.14±0.08%
Gentamicin | R | resistant | R | –
